Earlier results on three compounds are cited in patent US20230117508A1, “ENHANCEMENT OF CAMP SIGNALING AS A COMBINATION DRUG STRATEGY FOR THE TREATMENT OF PSYCHIATRIC AND NEUROLOGICAL DISORDERS IN WHICH DEPRESSIVE, ANHEDONIA, MOTIVATION-RELATED OR COGNITION-RELATED DYSFUNCTION EXISTS” (ALTO NEUROSCIENCE, INC., priority 2021, published 2023).

For series [1] the following is noted: in vivo.
The conditions of series [2]: humans.
Test in series [3]: not given
The source holds these as a separate data set.

For series [4] the following is noted: small clinical trials in depression.

Turning to `O=C(Nc1c(Cl)cncc1Cl)c1ccc(OC(F)F)c(OCC2CC2)c1` [Roflumilast], in series [1], the antidepressant effect result is reported as “no evidence of an antidepressant effect” and the cognitive effects entry is listed as “pro-cognitive effects”.

For the compound `CCOC(=O)COc1ccc2c(c1)C[C@@H](NC[C@H](O)c1cccc(Cl)c1)CC2` [amibegron], the “antidepressant-like effects in animals” value was “promising antidepressant-like effects”. The “efficacy in two acute treatment clinical trials for depression” value in series [2] is reported as “failed to show efficacy”.

As for `COc1ccc(C2CNC(=O)C2)cc1OC1CCCC1` (stereo not drawn) [rolipram], the “phenotypes of treated mice” value in series [3] was “antidepressant and pro-cognitive phenotypes”. The “improvement in depression compared with TCA medications” value in series [4] is recorded as “In none of these studies, however, did rolipram produce a greater improvement in depression than the TCA medications”.
